In brackets after ≈: the same amount, converted by molar mass.
Key:
Assay type in all cases: functional
[1] = system: Staphylococcus aureus; assay: Antibacterial activity against Staphylococcus aureus obtained from complicated skin and skin structure infections by agar dilution method
[2] = system: Staphylococcus aureus; assay: Antibacterial activity against methicillin resistant Staphylococcus aureus obtained from complicated skin and skin structure infections by agar dilution method
[3] = system: Staphylococcus aureus; assay: Antibacterial activity against methicillin susceptible Staphylococcus aureus obtained from complicated skin and skin structure infections by agar dilution method
[4] = system: Staphylococcus epidermidis; assay: Antibacterial activity against coagulase-negative Staphylococcus epidermidis obtained from complicated skin and skin structure infections by agar dilution method
[5] = system: Staphylococcus haemolyticus; assay: Antibacterial activity against coagulase-negative Staphylococcus haemolyticus obtained from complicated skin and skin structure infections by agar dilution method
[6] = system: Staphylococcus lugdunensis; assay: Antibacterial activity against coagulase-negative Staphylococcus lugdunensis obtained from complicated skin and skin structure infections by agar dilution method
[7] = system: Staphylococcus hominis; assay: Antibacterial activity against coagulase-negative Staphylococcus hominis obtained from complicated skin and skin structure infections by agar dilution method
[8] = system: Staphylococcus capitis; assay: Antibacterial activity against coagulase-negative Staphylococcus capitis obtained from complicated skin and skin structure infections by agar dilution method
[9] = system: Staphylococcus saprophyticus; assay: Antibacterial activity against coagulase-negative Staphylococcus saprophyticus obtained from complicated skin and skin structure infections by agar dilution method
[10] = system: Staphylococcus cohnii; assay: Antibacterial activity against coagulase-negative Staphylococcus cohnii obtained from complicated skin and skin structure infections by agar dilution method
[11] = system: Mammaliicoccus sciuri; assay: Antibacterial activity against coagulase-negative Staphylococcus sciuri obtained from complicated skin and skin structure infections by agar dilution method
[12] = system: Staphylococcus warneri; assay: Antibacterial activity against coagulase-negative Staphylococcus warneri obtained from complicated skin and skin structure infections by agar dilution method
[13] = system: Staphylococcus lugdunensis; assay: Antibacterial activity against methicillin-resistant, oxacillin-susceptible, coagulase-negative, mecA-positive Staphylococcus lugdunensis obtained from complicated skin and skin structure infections by agar dilution method
[14] = system: Staphylococcus; assay: Antibacterial activity against methicillin-susceptible, coagulase-negative Staphylococcus obtained from complicated skin and skin structure infections by agar dilution method
[15] = system: Enterococcus faecalis; assay: Antibacterial activity against Enterococcus faecalis obtained from complicated skin and skin structure infections by agar dilution method
[16] = system: Enterococcus faecium; assay: Antibacterial activity against Enterococcus faecium obtained from complicated skin and skin structure infections by agar dilution method
[17] = system: Streptococcus agalactiae; assay: Antibacterial activity against Streptococcus agalactiae obtained from complicated skin and skin structure infections by agar dilution method
[18] = system: Streptococcus pyogenes; assay: Antibacterial activity against Streptococcus pyogenes obtained from complicated skin and skin structure infections by agar dilution method
[19] = Antibacterial activity against Streptococcus sp. 'group C' obtained from complicated skin and skin structure infections by agar dilution method
[20] = Antibacterial activity against Streptococcus sp. 'group G' obtained from complicated skin and skin structure infections by agar dilution method
[21] = system: Streptococcus constellatus; assay: Antibacterial activity against Streptococcus constellatus obtained from complicated skin and skin structure infections by agar dilution method
[22] = system: Streptococcus mitis; assay: Antibacterial activity against Streptococcus mitis obtained from complicated skin and skin structure infections by agar dilution method
[23] = system: Staphylococcus intermedius; assay: Antibacterial activity against Staphylococcus intermedius obtained from complicated skin and skin structure infections by agar dilution method
[24] = system: Aerococcus viridans; assay: Antibacterial activity against Aerococcus viridans obtained from complicated skin and skin structure infections by agar dilution method
[25] = system: Bacillus; assay: Antibacterial activity against Bacillus spp. obtained from complicated skin and skin structure infections by agar dilution method
[26] = system: Gemella morbillorum; assay: Antibacterial activity against Gemella morbillorum obtained from complicated skin and skin structure infections […]
[27] = system: Gemella; assay: Antibacterial activity against Gemella spp. obtained from complicated skin and skin structure infections by agar dilution method
[28] = system: Lactococcus lactis; assay: Antibacterial activity against Lactococcus lactis obtained from complicated skin and skin structure infections by agar dilution method
[29] = system: Micrococcus; assay: Antibacterial activity against Micrococcus spp. obtained from complicated skin and skin structure infections by agar dilution method

## CC(=O)NC[C@H]1CN(c2ccc(N3CCOCC3)c(F)c2)C(=O)O1 [LINEZOLID]
[1]
  MIC50: 2 µg/mL (≈ 5.93 µM)
  MIC90: 2 µg/mL (≈ 5.93 µM)
[2]
  MIC50: 2 µg/mL (≈ 5.93 µM)
  MIC90: 2 µg/mL (≈ 5.93 µM)
[3]
  MIC50: 2 µg/mL (≈ 5.93 µM)
  MIC90: 2 µg/mL (≈ 5.93 µM)
[4]
  MIC50: 1 µg/mL (≈ 2.96 µM)
  MIC90: 1 µg/mL (≈ 2.96 µM)
[5]
  MIC50: 1 µg/mL (≈ 2.96 µM)
  MIC90: 1 µg/mL (≈ 2.96 µM)
[6]
  MIC50: 1 µg/mL (≈ 2.96 µM)
  MIC90: 1 µg/mL (≈ 2.96 µM)
[7]
  MIC50: 1 µg/mL (≈ 2.96 µM)
  MIC90: 1 µg/mL (≈ 2.96 µM)
[8]
  MIC50: 1 µg/mL (≈ 2.96 µM)
  MIC90: 1 µg/mL (≈ 2.96 µM)
[9]
  MIC50: 1 µg/mL (≈ 2.96 µM)
  MIC90: 1 µg/mL (≈ 2.96 µM)
[10]
  MIC50: 1 µg/mL (≈ 2.96 µM)
  MIC90: 1 µg/mL (≈ 2.96 µM)
[11]
  MIC50: 1 µg/mL (≈ 2.96 µM)
  MIC90: 1 µg/mL (≈ 2.96 µM)
[12]
  MIC50: 1 µg/mL (≈ 2.96 µM)
  MIC90: 1 µg/mL (≈ 2.96 µM)
[13]
  MIC50: 1 µg/mL (≈ 2.96 µM)
  MIC90: 1 µg/mL (≈ 2.96 µM)
[14]
  MIC50: 1 µg/mL (≈ 2.96 µM)
  MIC90: 1 µg/mL (≈ 2.96 µM)
[15]
  MIC50: 1 µg/mL (≈ 2.96 µM)
  MIC90: 2 µg/mL (≈ 5.93 µM)
[16]
  MIC: 2 µg/mL (≈ 5.93 µM)
  MIC50: 2 µg/mL (≈ 5.93 µM)
[17]
  MIC50: 1 µg/mL (≈ 2.96 µM)
  MIC90: 1 µg/mL (≈ 2.96 µM)
[18]
  MIC50: 1 µg/mL (≈ 2.96 µM)
  MIC90: 1 µg/mL (≈ 2.96 µM)
[19]
  MIC50: 1 µg/mL (≈ 2.96 µM)
  MIC90: 2 µg/mL (≈ 5.93 µM)
[20]
  MIC: 1 µg/mL (≈ 2.96 µM)
  MIC50: 1 µg/mL (≈ 2.96 µM)
  MIC90: 1 µg/mL (≈ 2.96 µM)
[21]
  MIC50: 1 µg/mL (≈ 2.96 µM)
  MIC90: 1 µg/mL (≈ 2.96 µM)
[22]
  MIC50: ≤ 0.06 µg/mL
  MIC90: 0.06 µg/mL (≈ 0.178 µM)
[23]
  MIC50: ≤ 0.06 µg/mL
  MIC90: 0.06 µg/mL (≈ 0.178 µM)
[24]
  MIC50: 1 µg/mL (≈ 2.96 µM)
  MIC90: 2 µg/mL (≈ 5.93 µM)
[25]
  MIC50: 1 µg/mL (≈ 2.96 µM)
  MIC90: 2 µg/mL (≈ 5.93 µM)
[26]
  MIC50: 1 µg/mL (≈ 2.96 µM)
  MIC90: 2 µg/mL (≈ 5.93 µM)
[27]
  MIC50: 1 µg/mL (≈ 2.96 µM)
  MIC90: 2 µg/mL (≈ 5.93 µM)
[28]
  MIC50: 1 µg/mL (≈ 2.96 µM)
  MIC90: 2 µg/mL (≈ 5.93 µM)
[29]
  MIC50: 1 µg/mL (≈ 2.96 µM)
  MIC90: 2 µg/mL (≈ 5.93 µM)

## CC[C@H]1OC(=O)[C@H](C)[C@@H](O[C@H]2C[C@@](C)(OC)[C@@H](O)[C@H](C)O2)[C@H](C)[C@@H](O[C@@H]2O[C@H](C)C[C@H](N(C)C)[C@H]2O)[C@](C)(O)C[C@@H](C)C(=O)[C@H](C)[C@@H](O)[C@]1(C)O [ERYTHROMYCIN]
[1]
  MIC50: 0.25 µg/mL (≈ 0.341 µM)
  MIC90: > 16 µg/mL
[2]
  MIC50: > 8 µg/mL
[3]
  MIC50: 0.25 µg/mL (≈ 0.341 µM)
  MIC90: > 8 µg/mL
[4]
  MIC50: 0.25 µg/mL (≈ 0.341 µM)
  MIC90: > 16 µg/mL
[5]
  MIC50: 0.25 µg/mL (≈ 0.341 µM)
  MIC90: > 16 µg/mL
[6]
  MIC50: 0.25 µg/mL (≈ 0.341 µM)
  MIC90: > 16 µg/mL
[7]
  MIC50: 0.25 µg/mL (≈ 0.341 µM)
  MIC90: > 16 µg/mL
[8]
  MIC50: 0.25 µg/mL (≈ 0.341 µM)
  MIC90: > 16 µg/mL
[9]
  MIC50: 0.25 µg/mL (≈ 0.341 µM)
  MIC90: > 16 µg/mL
[10]
  MIC50: 0.25 µg/mL (≈ 0.341 µM)
  MIC90: > 16 µg/mL
[11]
  MIC50: 0.25 µg/mL (≈ 0.341 µM)
  MIC90: > 16 µg/mL
[12]
  MIC50: 0.25 µg/mL (≈ 0.341 µM)
  MIC90: > 16 µg/mL
[13]
  MIC50: > 8 µg/mL
[14]
  MIC50: 0.25 µg/mL (≈ 0.341 µM)
  MIC90: > 8 µg/mL
[15]
  MIC50: > 8 µg/mL
  MIC90: > 16 µg/mL
[16]
  MIC50: 2 µg/mL (≈ 2.73 µM)
[17]
  MIC50: 0.06 µg/mL (≈ 0.0818 µM)
  MIC90: > 16 µg/mL
[18]
  MIC50: 0.06 µg/mL (≈ 0.0818 µM)
  MIC90: 0.06 µg/mL (≈ 0.0818 µM)
[19]
  MIC50: 0.03 µg/mL (≈ 0.0409 µM)
  MIC90: 0.12 µg/mL (≈ 0.164 µM)
[20]
  MIC50: 0.06 µg/mL (≈ 0.0818 µM)
  MIC90: 1 µg/mL (≈ 1.36 µM)
[21]
  MIC50: ≤ 0.06 µg/mL
  MIC90: 0.06 µg/mL (≈ 0.0818 µM)
[22]
  MIC: ≤ 0.06 µg/mL
  MIC50: ≤ 0.06 µg/mL
  MIC90: 0.06 µg/mL (≈ 0.0818 µM)
[23]
  MIC: ≤ 0.06 µg/mL
  MIC50: ≤ 0.06 µg/mL
  MIC90: 0.06 µg/mL (≈ 0.0818 µM)
[24]
  MIC50: 0.03 µg/mL (≈ 0.0409 µM)
  MIC90: 8 µg/mL (≈ 10.9 µM)
[25]
  MIC50: 0.03 µg/mL (≈ 0.0409 µM)
  MIC90: 8 µg/mL (≈ 10.9 µM)
[26]
  MIC50: 0.03 µg/mL (≈ 0.0409 µM)
  MIC90: 8 µg/mL (≈ 10.9 µM)
[27]
  MIC50: 0.03 µg/mL (≈ 0.0409 µM)
  MIC90: 8 µg/mL (≈ 10.9 µM)
[28]
  MIC50: 0.03 µg/mL (≈ 0.0409 µM)
  MIC90: 8 µg/mL (≈ 10.9 µM)
[29]
  MIC50: 0.03 µg/mL (≈ 0.0409 µM)
  MIC90: 8 µg/mL (≈ 10.9 µM)

Source: ChEMBL document CHEMBL1275492, “In vitro activity of ceftobiprole against pathogens from two phase 3 clinical trials of complicated skin and skin structure infections” (2008)
